Oligonucleotides are written 5' to 3', each unit as a sugar letter and its base; * is a phosphorothioate linkage, no mark a phosphodiester; rarer units and linkages stand in square brackets, end groups in braces. Plain capitals give the bases only. r = 2'-OH (RNA); f = 2'-fluoro
T1: native chymase (purified from human skin mast cell) (Homo sapiens, UniProt P23946)
T1 construct: the native is chymase purified from human skin mast cell; purchased Calbiochem; host or cells: human skin mast cell
T1 sequence (P23946 22-247): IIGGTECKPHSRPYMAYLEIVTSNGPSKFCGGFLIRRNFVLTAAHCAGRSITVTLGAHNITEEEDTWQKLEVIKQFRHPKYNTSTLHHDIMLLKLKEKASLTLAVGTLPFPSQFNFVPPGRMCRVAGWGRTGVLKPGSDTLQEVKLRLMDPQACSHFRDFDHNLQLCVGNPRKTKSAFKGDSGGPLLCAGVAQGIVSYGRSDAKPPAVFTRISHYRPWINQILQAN

T2: chymase (recombinant, manufactured by SIGMA) (Homo sapiens, UniProt P23946)
T2 construct: purchased SIGMA; host or cells: yeast
T2 sequence (P23946 22-247): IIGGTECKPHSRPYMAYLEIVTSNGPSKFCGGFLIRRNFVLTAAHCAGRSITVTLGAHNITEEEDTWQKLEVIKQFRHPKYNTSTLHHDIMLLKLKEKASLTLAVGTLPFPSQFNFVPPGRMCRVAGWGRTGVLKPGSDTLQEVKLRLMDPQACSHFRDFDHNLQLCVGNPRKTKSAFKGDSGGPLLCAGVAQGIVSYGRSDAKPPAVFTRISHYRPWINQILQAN


What was measured:
[1] = biological target: T1, native chymase (purified from human skin mast cell); assay: Chymase inhibitory activity using angiotensin I as substrate, native chymase; assay type: biochemical; details: final 50 μM, chymase 0.2-0.5 nM, 37° C. 90 min, one measurement
Experimental: A second method of evaluation employs a native substrate. A useful native substrate for chymase is angiotensin I. Here, His-Leu, a peptide fragment released upon degradation of angiotensin I, is fluorescently derivatized, and the fluorescence intensity therefrom is quantified.
In the assay, an enzyme reaction is carried out in 50 μL of solution C. First, 0.3-0.75 ng of chymase (recombinant, manufactured by SIGMA; or native, manufactured by Calbiochem) is diluted in solution C to obtain 5 μL chymase solution. Each nucleic acid is prepared in solution C to obtain 25 μL solutions. 5 μL of each chymase dilution and 25 μL of each nucleic acid solution are mixed, and then the mixture is incubated at 37° C. for 5 minutes. […] The angiotensin I solution is added to the mixture of chymase and nucleic acid, and the enzyme reaction is initiated. After the reaction was allowed to proceed at 37° C. for 90 minutes, 25 μL of ice-cooled 30% trichloroacetic acid solution is added to terminate the reaction. The entire mixture is centrifuged at 4° C., 14000 rpm for 10 minutes, and 30 μL of the resulting supernatant is used for the subsequent reaction for fluorescent derivatization.
After 30 μL of the supernatant is added to a 96-well plate (Black, manufactured by Costar), 15 μL of 2% o-phthalaldehyde (manufactured by SIGMA) solution in methanol and 170 μL of 0.3M NaOH solution are mixed in each well, and the plate is allowed to stand at room temperature for 10 minutes. Subsequently, 25 μL of 3M HCl solution is added to terminate the reaction. The plate is set to the microplate reader SpectraMax190 (manufactured by Molecular Devices Corporation), and the fluorescence intensity is determined at an excitation wavelength of 355 nm and a fluorescence wavelength of 460 nm.
For control, samples are treated and analyzed in the same manner in two cases: use of SEQ ID NO: 58 (negative control) and use of chymostatin, a known chymotrypsin-like serine protease inhibitor (positive control). In both cases, fluorescence intensity obtained at 0 minute reaction time serves as a blank determination. Taking the fluorescence intensity detected with the addition of an equal volume of solution C, in place of each nucleic acid, in the chymase enzyme reaction as 100%, the inhibitory rate for each test substance is calculated, and the inhibitor concentration required to cause a 50% inhibition of the enzyme activity (IC50) is determined.
For further assessment of the inhibitory activity of the nucleic acid of the present invention, the enzyme activity of chymase was measured using angiotensin I, which is a native substrate for chymase, according to the following method. Angiotensin I is converted by chymase to angiotensin II, during which a peptide fragment His-Leu is released. Since the peptide His-Leu is fluorescently derivatized by o-phthalaldehyde, its fluorescence intensity can be quantitatively measured.
The total volume of solution for an enzyme reaction in the assay was set to 50 μL, and the reaction was performed in solution C buffer. First, 0.3-0.75 ng of chymase (recombinant, (manufactured by SIGMA) or native (manufactured by Calbiochem)) was diluted with solution C to give 5 μL thereof. Here, the recombinant is chymase expressed by yeast, and the native is chymase purified from human skin mast cell. The nucleic acid was serially diluted with solution C at a concentration of 0.0027-2 μM to give 25 μL thereof. The chymase solution (5 μL) and the nucleic acid solution (25 μL) were mixed, and the mixture was incubated at 37° C. for 5 min. On the other hand, […] angiotensin I (manufactured by PEPTIDE INSTITUTE, INC.) was prepared in solution C to give […] thereof, which was incubated at 37° C. for 5 min. The angiotensin I solution was added to a mixture of chymase and nucleic acid to start an enzyme reaction. The final chymase concentration of the reaction solution was 0.2-0.5 nM, and the final substrate concentration was 50 μM. […]

[2] = biological target: T2, chymase (recombinant, manufactured by SIGMA); assay: Surface plasmon resonance (Biacore T100), chymase immobilized on CM5 chip, nucleic acid injected as analyte; assay type: binding; parameters: key to Binding activity as determined using Biacore: ++: a sequence that binds to chymase significantly more strongly than the negative control 40N; +: a sequence that binds to chymase equivalently compared with the negative control 40N; key to binding activity using Biacore: ++: significant binding to chymase than SEQ ID NO: 58 which is a negative control; +: similar binding level as SEQ ID NO: 58 which is a negative control; details: for Binding activity as determined using Biacore: Table 4, about 4000 RU chymase immobilized, nucleic acid 0.3 μM, solution C, compared with 40N; for binding activity using Biacore: same manner as Example 4, compared with SEQ ID NO: 58
Experimental: In another method, chymase is first immobilized onto a sensor chip, the amount immobilized being about 4000 RU. 20 μL of an aptamer solution for analyte, prepared at 0.01 μg/μL, is injected, and the binding of the aptamer to chymase is detected. An RNA containing a random nucleotide sequence of 30 or 40 nucleotides is used as a negative control.
Whether these nucleic acids bind to chymase was determined by the surface plasmon resonance method. Measurements were taken using Biacore T100 (manufactured by GE Healthcare) as described below. About 4000 RU of chymase (recombinant, manufactured by SIGMA) was immobilized on the sensor chip surface of a CM5 chip, using an amine coupling kit. 20 μL of each nucleic acid, prepared at 0.3 μM, as an analyte was injected at a flow rate of 20 μL/min. Solution C was used as a running buffer. The method of evaluation used was the same as Example 1.
All nucleic acids of SEQ ID NO: 58-68 were prepared by chemical synthesis. Whether these nucleic acids are bound to chymase was assessed by surface plasmon resonance method in the same manner as in Example 4. The inhibitory activity on chymase was measured in the same manner as in Example 3.
All nucleic acids of SEQ ID NOs: 73-79, 56(8), 80, 56(10), 81, 56(13)-56(14), 83-87 were prepared by chemical synthesis. Whether these nucleic acids are bound to chymase was assessed by surface plasmon resonance method in the same manner as in Example 4.
All nucleic acids of SEQ ID NO: 88-120, 121, 69, 122, 123, 70-72, 124-131 were prepared by chemical synthesis. Whether these nucleic acids are bound to chymase was assessed by surface plasmon resonance method in the same manner as in Example 4.

| Molecule | IC50 [1] | other results |
| --- | --- | --- |
| 53 (GGGUAACUAUGGUUAGAUAGAGUUAAAAACCAUAGAAGACCC; 2'-fluoro at CU, RNA at AG, backbone not given here) [compound 53] | 764 nM | Binding activity as determined using Biacore [2]: ++ |
| 54 (UAACUAUGGUUAGAUAGAGUUAAAAACCAUAGAAGA; 2'-fluoro at CU, RNA at AG, backbone not given here) [compound 54] | 614 nM | Binding activity as determined using Biacore [2]: ++ |
| 55 (CUAUGGUUAGAUAGAGUUAAAAACCAUAG; 2'-fluoro at CU, RNA at AG, backbone not given here) [compound 55] | 606 nM | Binding activity as determined using Biacore [2]: ++ |
| 56 (GGGUUAGAUAGAGUUAAAAACCC; 2'-fluoro at CU, RNA at AG, backbone not given here) [compound 56] | 508 nM | Binding activity as determined using Biacore [2]: ++; binding activity using Biacore ([2]; Table 6): ++ |
| 58 (GGGUUGAAGAUAUUAAAGAACCC; 2'-fluoro at CU, RNA at AG, backbone not given here) [compound 58] | – | binding activity using Biacore ([2]; Table 5): + |
| 65 (rGrGfCrArGrAfUrArGrArGfUfUrArArArGfCfC) [compound 65] | 878 nM | binding activity using Biacore ([2]; Table 5): ++ |
| 70 (GGGTTAGAUAGAGUUAAAAACCC; chemistry not given here) [compound 70] | 478 nM | binding activity using Biacore ([2]; Table 7): ++ |
| 71 (GGGUUAGAUAGAGTUAAAAACCC; chemistry not given here) [compound 71] | 341 nM | binding activity using Biacore ([2]; Table 7): ++ |
| 72 (GGGTTAGAUAGAGTUAAAAACCC; chemistry not given here) [compound 72] | 120 nM | binding activity using Biacore ([2]; Table 7): ++ |
| CC(C)C[C@H](NC(=O)[C@@H](NC(=O)N[C@@H](Cc1ccccc1)C(=O)O)[C@@H]1CCN=C(N)N1)C(=O)N[C@H](C=O)Cc1ccccc1 [chymostatin, reference compound] | 350 to 500 nM | – |
| GGGU(F)U(F)GAAGAU(F)AU(F)U(F)AAAGAAC(F)C(F)C(F) (GGGUUGAAGAUAUUAAAGAACCC; 2'-fluoro at CU, RNA at AG, backbone not given here) [SEQ ID NO: 58] | > 1000 nM | – |
| 13 (nucleic acid, aptamer) rGrGrGrAfCrGrGfUrArGrGrArAfUfUfCfCrGfCrArAfCfCrAfUfCfCfCrGfUrArAfCfUrAfUrGrGfUfUrArGrAfUrArGrArGfUfUrArArArArAfCfCrAfUrArGrArArGrArGfCrGrGfCfCrGfC | 74 nM | – |
| 14 (nucleic acid, aptamer) rGrGrGrAfCrGrGfUrArGrGrArAfUfUfCfUfCrGfUfUfCfCfUrGrAfCrArGfCrAfUfUfUrGrArGrAfUrArGrAfUfUfUrArArAfCrArArAfCrGfCrAfCrAfUrArGrArArGrArGfCrGrGfCfCrGfC | 63 nM | – |
| 4 (nucleic acid, aptamer) rGrGrGrAfCrGrGfUrArGrGrArAfUfUfCrGfUfCfCrAfUfUfCfUrAfCrArGrAfUrArGrArGrAfUrArArArGfUrArGrArAfUfUfUrArAfCrArArArAfCrAfUrArGrArArGrArGfCrGrGfCfCrGfC | 31 nM | – |

Source: patent US9012420B2, “Aptamer for chymase, and use thereof” (Ribomic Inc., priority 2009, dated 2015)
